In PMC4275348 (Molecular microbiology, 2014):
Numbering of substitutions follows the chain as printed.

What was measured:
[1] = target: T1, LuxN^G147D/Y194H (Vibrio campbellii, UniProt A7MRY4, G147D/Y194H); assay: Bioluminescence of V. harveyi XK006 carrying luxN G147D/Y194H; assay type: cell-based, Vibrio harveyi
T1 sequence (A7MRY4 1-849 G147D/Y194H): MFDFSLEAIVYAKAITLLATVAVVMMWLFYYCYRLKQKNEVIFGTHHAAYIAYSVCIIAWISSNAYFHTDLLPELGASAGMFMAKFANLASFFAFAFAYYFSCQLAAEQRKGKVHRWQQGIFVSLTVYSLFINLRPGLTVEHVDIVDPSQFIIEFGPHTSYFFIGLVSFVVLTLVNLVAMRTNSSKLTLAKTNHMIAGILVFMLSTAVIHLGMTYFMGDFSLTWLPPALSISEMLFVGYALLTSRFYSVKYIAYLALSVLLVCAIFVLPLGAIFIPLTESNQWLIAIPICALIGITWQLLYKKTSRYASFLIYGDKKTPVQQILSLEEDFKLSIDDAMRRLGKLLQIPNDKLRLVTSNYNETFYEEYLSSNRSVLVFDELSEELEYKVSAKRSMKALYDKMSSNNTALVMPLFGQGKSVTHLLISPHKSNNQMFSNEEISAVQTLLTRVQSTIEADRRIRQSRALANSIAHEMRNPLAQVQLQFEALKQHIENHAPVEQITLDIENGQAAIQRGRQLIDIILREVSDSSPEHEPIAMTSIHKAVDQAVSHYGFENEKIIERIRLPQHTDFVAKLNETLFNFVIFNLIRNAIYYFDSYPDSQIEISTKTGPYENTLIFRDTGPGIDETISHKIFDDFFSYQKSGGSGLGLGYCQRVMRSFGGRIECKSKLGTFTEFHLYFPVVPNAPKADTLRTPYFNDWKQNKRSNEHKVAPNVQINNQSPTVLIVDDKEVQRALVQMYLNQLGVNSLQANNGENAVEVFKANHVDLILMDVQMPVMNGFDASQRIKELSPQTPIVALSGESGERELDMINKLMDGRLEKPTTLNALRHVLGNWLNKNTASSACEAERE

[2] = target: T2, luxN^S184I/S230P (Vibrio campbellii, UniProt A7MRY4, S184I/S230P); assay: Bioluminescence of V. harveyi XK006 carrying luxN S184I/S230P; assay type: cell-based, Vibrio harveyi
T2 sequence (A7MRY4 1-849 S184I/S230P): T1 sequence (A7MRY4 1-849 G147D/Y194H) with D147G, S184I, H194Y, S230P

[3] = target: LuxN (Vibrio campbellii, UniProt A7MRY4); details: 1 μM AHL; V. harveyi TL25; versus DMSO
[4] = target: T3, LuxN^H210N (Vibrio campbellii, UniProt A7MRY4, H210N); assay: Bioluminescence of V. harveyi XK006 carrying luxN H210N; assay type: cell-based, Vibrio harveyi; details: dose-dependent light production
T3 sequence (A7MRY4 1-849 H210N): T1 sequence (A7MRY4 1-849 G147D/Y194H) with D147G, H194Y, H210N

C[C@@H](O)CC(=O)N[C@H]1CCOC1=O [3OH-C4 HSL, N-((R)-3-hydroxybutanoyl)-L-homoserine lactone]
response (dose-dependent light production) [1]: most potent agonist
induction of light production ([1]; 20 nM AI-1): 30 fold
response (dose-dependent light production) [2]: most potent agonist
increase in light production [3]: over 1000 fold
less sensitivity than for the other two C4 AHLs (3O-C4 HSL, C4 HSL) [4]: 10 fold
